Assay results published in PubChem BioAssay AID330 (DTP/NCI, 2004).
Several values for one entry are separate records, joined by “and”; a condition that tells them apart may be missing. Identical values can stand only once. Inconclusive results and toxic doses are left out.

Tested on: P388 leukemia ip, CD2F1 mice, survival T/C
Test: NCI In Vivo Anticancer Drug Screen. Data for tumor model P388 Leukemia (intraperitoneal) in CD2F1 (CDF1) mice
Conditions: endpoint: median survival time, higher = longer survival
How it was run: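 Mice carrying the transplanted tumor received test compound or vehicle. Survival was recorded in each group, and the value is the treated-group measurement divided by that of the vehicle-treated control group.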

[1] = dose: 50.0 mg/kg/injection, schedule: Q01DX009 (ip), vehicle: saline with Tween-80
[2] = dose: 100.0 mg/kg/injection, schedule: Q01DX009 (ip), vehicle: saline with Tween-80
[3] = dose: 200.0 mg/kg/injection, schedule: Q01DX009 (ip), vehicle: saline with Tween-80
[4] = dose: 400.0 mg/kg/injection, schedule: Q01DX009 (ip), vehicle: saline with Tween-80
[5] = dose: 50.0 mg/kg/injection, schedule: Q04DX003 (ip), vehicle: saline
[6] = dose: 100.0 mg/kg/injection, schedule: Q04DX003 (ip), vehicle: saline
[7] = dose: 50.0 mg/kg/injection, schedule: Q01DX009 (ip), vehicle: Klucel (hydroxypropylcellulose) (HPC)
[8] = dose: 100.0 mg/kg/injection, schedule: Q01DX009 (ip), vehicle: Klucel (hydroxypropylcellulose) (HPC)
[9] = dose: 200.0 mg/kg/injection, schedule: Q01DX009 (ip), vehicle: Klucel (hydroxypropylcellulose) (HPC)
[10] = dose: 25.0 mg/kg/injection, schedule: Q01DX009 (ip), vehicle: other
[11] = dose: 100.0 mg/kg/injection, schedule: Q01DX001 (ip), vehicle: saline with Tween-80
[12] = dose: 200.0 mg/kg/injection, schedule: Q01DX001 (ip), vehicle: saline with Tween-80
[13] = dose: 400.0 mg/kg/injection, schedule: Q01DX001 (ip), vehicle: saline with Tween-80
[14] = dose: 60.0 mg/kg/injection, schedule: Q01DX005 (ip), vehicle: Klucel (hydroxypropylcellulose) (HPC)
[15] = dose: 25.0 mg/kg/injection, schedule: Q01DX001 (ip), vehicle: saline with Tween-80

## N#CCCC1(CCC#N)CCCC(CCC#N)(CCC#N)C1=O
[1]
  T/C: 95 % of control
[2]
  T/C: 99 % of control
[3]
  T/C: 87 % of control
[4]
  T/C: 92 % of control

## CC(C)c1nccn1Cc1ccc(Cl)cc1Cl
dose: 60.0 mg/kg/injection, schedule: Q01DX005 (ip), vehicle: saline with Tween-80
  T/C: 88 % of control
dose: 120.0 mg/kg/injection, schedule: Q01DX005 (ip), vehicle: saline with Tween-80
  T/C: 99 % of control

## O
dose: 0.01 % in 0.5 ml injection vol, schedule: Q01DX009 (ip), vehicle: water
  T/C: 92 % of control
dose: 0.02 % in 0.5 ml injection vol, schedule: Q01DX009 (ip), vehicle: water
  T/C: 100 % of control and 95 % of control
dose: 0.04 % in 0.5 ml injection vol, schedule: Q01DX009 (ip), vehicle: water
  T/C: 105 % of control
dose: 0.08 % in 0.5 ml injection vol, schedule: Q01DX009 (ip), vehicle: water
  T/C: 100 % of control
dose: 100.0 mg/kg/injection, schedule: Q01DX009 (ip), vehicle: acetone
  T/C: 95 % of control
dose: 200.0 mg/kg/injection, schedule: Q01DX009 (ip), vehicle: acetone
  T/C: 90 % of control
dose: 400.0 mg/kg/injection, schedule: Q01DX009 (ip), vehicle: acetone
  T/C: 100 % of control
dose: 1:0.5 dilution, schedule: Q01DX005 (ip), vehicle: none
  T/C: 112 % of control
dose: 1:1.0 dilution, schedule: Q01DX005 (ip), vehicle: none
  T/C: 100 % of control
dose: 1:2.0 dilution, schedule: Q01DX005 (ip), vehicle: none
  T/C: 114 % of control

## Oc1ccc2c(c1)[C@]13CCCCC1[C@H](C2)N(Cc1ccoc1)CC3 (stereo partly drawn)
dose: 25.0 mg/kg/injection, schedule: Q01DX009 (ip), vehicle: saline
  T/C: 97 % of control
dose: 50.0 mg/kg/injection, schedule: Q01DX009 (ip), vehicle: saline
  T/C: 99 % of control and 103 % of control
dose: 100.0 mg/kg/injection, schedule: Q01DX009 (ip), vehicle: saline
  T/C: 99 % of control

## CCC[As](=O)(O)CCC
dose: 20.0 mg/kg/injection, schedule: Q01DX009 (ip), vehicle: saline
  T/C: 100 % of control
dose: 25.0 mg/kg/injection, schedule: Q04DX003 (ip), vehicle: saline
  T/C: 86 % of control
dose: 30.0 mg/kg/injection, schedule: Q01DX009 (ip), vehicle: saline
  T/C: 100 % of control
dose: 45.0 mg/kg/injection, schedule: Q01DX009 (ip), vehicle: saline
  T/C: 113 % of control
[5]
  T/C: 109 % of control
[6]
  T/C: 90 % of control

## CC1C(c2ccccc2)OCCN1C=NC#N (stereo not drawn)
[7]
  T/C: 102 % of control
[8]
  T/C: 103 % of control
[9]
  T/C: 103 % of control

## ClC(Cl)(Cl)SSC(=Nc1ccccc1)SSC(Cl)(Cl)Cl
[3]
  T/C: 155 % of control

## OCc1nccn1-c1ccccc1
dose: 25.0 mg/kg/injection, schedule: Q04DX002 (ip), vehicle: suspension in saline
  T/C: 100 % of control
dose: 50.0 mg/kg/injection, schedule: Q04DX002 (ip), vehicle: suspension in saline
  T/C: 99 % of control
dose: 100.0 mg/kg/injection, schedule: Q04DX002 (ip), vehicle: suspension in saline
  T/C: 107 % of control
dose: 200.0 mg/kg/injection, schedule: Q04DX002 (ip), vehicle: suspension in saline
  T/C: 100 % of control

## COc1ccc2cc3[nH]c(=O)cc(O)c3cc2c1OC
dose: 12.5 mg/kg/injection, schedule: Q01DX009 (ip), vehicle: other
  T/C: 96 % of control
[10]
  T/C: 106 % of control
dose: 50.0 mg/kg/injection, schedule: Q01DX009 (ip), vehicle: other
  T/C: 101 % of control
dose: 100.0 mg/kg/injection, schedule: Q01DX009 (ip), vehicle: other
  T/C: 89 % of control
dose: 200.0 mg/kg/injection, schedule: Q01DX009 (ip), vehicle: other
  T/C: 89 % of control

## O=[N+]([O-])c1ccc(-c2cnc3nc4[nH]c5ccccc5c4nn23)cc1
[11]
  T/C: 101 % of control
[12]
  T/C: 92 % of control
[13]
  T/C: 87 % of control

## COc1ccc(-c2csc(C)n2)cc1OC
dose: 100.0 mg/kg/injection, schedule: Q04DX003 (ip), vehicle: Klucel (hydroxypropylcellulose) (HPC)
  T/C: 106 % of control
dose: 200.0 mg/kg/injection, schedule: Q04DX003 (ip), vehicle: Klucel (hydroxypropylcellulose) (HPC)
  T/C: 106 % of control
dose: 400.0 mg/kg/injection, schedule: Q04DX003 (ip), vehicle: Klucel (hydroxypropylcellulose) (HPC)
  T/C: 103 % of control

## COc1ccccc1N=c1scc(C)n1C
[7]
  T/C: 111 % of control
[8]
  T/C: 109 % of control
[9]
  T/C: 118 % of control

## ClCCn1cnc2c(SCc3ccccc3Cl)ncnc21
dose: 25.0 mg/kg/injection, schedule: Q01DX009 (ip), vehicle: saline with Tween-80
  T/C: 100 % of control
[1]
  T/C: 90 % of control
[2]
  T/C: 90 % of control

## O=S(=O)(O)c1ccc2c(-c3ccccc3)c3ccccc3c(-c3ccccc3)c2c1
[14]
  T/C: 99 % of control
dose: 120.0 mg/kg/injection, schedule: Q01DX005 (ip), vehicle: Klucel (hydroxypropylcellulose) (HPC)
  T/C: 100 % of control
dose: 240.0 mg/kg/injection, schedule: Q01DX005 (ip), vehicle: Klucel (hydroxypropylcellulose) (HPC)
  T/C: 98 % of control

## COc1cc(C2c3cc4c(cc3OC(C)(OC)C2C)OCO4)cc(OC)c1OC (stereo not drawn)
dose: 1.8 mg/kg/injection, schedule: Q01DX005 (ip), vehicle: saline
  T/C: 103 % of control
dose: 3.75 mg/kg/injection, schedule: Q01DX005 (ip), vehicle: saline
  T/C: 98 % of control
dose: 7.5 mg/kg/injection, schedule: Q01DX005 (ip), vehicle: saline
  T/C: 93 % of control
dose: 15.0 mg/kg/injection, schedule: Q01DX005 (ip), vehicle: saline
  T/C: 91 % of control
dose: 30.0 mg/kg/injection, schedule: Q01DX005 (ip), vehicle: saline
  T/C: 89 % of control
dose: 60.0 mg/kg/injection, schedule: Q01DX005 (ip), vehicle: saline
  T/C: 102 % of control and 86 % of control
dose: 120.0 mg/kg/injection, schedule: Q01DX005 (ip), vehicle: saline
  T/C: 86 % of control
dose: 240.0 mg/kg/injection, schedule: Q01DX005 (ip), vehicle: saline
  T/C: 92 % of control

## NNc1nnnc2c1sc1ccccc12
[11]
  T/C: 89 % of control
[13]
  T/C: 93 % of control

## CC(C)P(C(C)C)C(C)C
[11]
  T/C: 104 % of control
[12]
  T/C: 104 % of control
[13]
  T/C: 95 % of control

## N#CCC1(c2ccccc2)CCCCC1
[1]
  T/C: 97 % of control
[2]
  T/C: 107 % of control
[3]
  T/C: 107 % of control

## O=C(NCCCBr)Nc1cccc2c1CCCC2
[2]
  T/C: 100 % of control
dose: 100.0 mg/kg/injection, schedule: Q04DX003 (ip), vehicle: saline with Tween-80
  T/C: 100 % of control
[3]
  T/C: 100 % of control
dose: 200.0 mg/kg/injection, schedule: Q04DX003 (ip), vehicle: saline with Tween-80
  T/C: 108 % of control
[4]
  T/C: 100 % of control
dose: 400.0 mg/kg/injection, schedule: Q04DX003 (ip), vehicle: saline with Tween-80
  T/C: 100 % of control

## O=C1c2ccccc2C(=O)N1CC[P+](c1ccc(Cl)cc1)(c1ccc(Cl)cc1)c1ccc(Cl)cc1
[10]
  T/C: 95 % of control

## CNc1cc(C)c2ccc(N(C)C)cc2n1
dose: 7.5 mg/kg/injection, schedule: Q01DX005 (ip), vehicle: Klucel (hydroxypropylcellulose) (HPC)
  T/C: 98 % of control
dose: 15.0 mg/kg/injection, schedule: Q01DX005 (ip), vehicle: Klucel (hydroxypropylcellulose) (HPC)
  T/C: 102 % of control
dose: 30.0 mg/kg/injection, schedule: Q01DX005 (ip), vehicle: Klucel (hydroxypropylcellulose) (HPC)
  T/C: 101 % of control
[14]
  T/C: 93 % of control

## CCOP(O)(=S)OCC.[Fe]
[15]
  T/C: 89 % of control
dose: 33.0 mg/kg/injection, schedule: Q01DX001 (ip), vehicle: saline with Tween-80
  T/C: 96 % of control
dose: 50.0 mg/kg/injection, schedule: Q01DX001 (ip), vehicle: saline with Tween-80
  T/C: 94 % of control
[5]
  T/C: 97 % of control
dose: 75.0 mg/kg/injection, schedule: Q01DX001 (ip), vehicle: saline with Tween-80
  T/C: 90 % of control and 95 % of control
[11]
  T/C: 90 % of control
[6]
  T/C: 101 % of control
dose: 200.0 mg/kg/injection, schedule: Q04DX003 (ip), vehicle: saline
  T/C: 100 % of control
dose: 400.0 mg/kg/injection, schedule: Q04DX003 (ip), vehicle: saline
  T/C: 90 % of control

## Cn1ncc2c(N)c(C#N)c(=O)[nH]c21
[15]
  T/C: 102 % of control

## O=c1nc(-c2ccccc2)c(-c2ccccc2)n[nH]1
[1]
  T/C: 100 % of control
[2]
  T/C: 100 % of control
[3]
  T/C: 100 % of control
